Several values for one entry are separate records, joined by “and”; a condition that tells them apart may be missing. Equal values may be shown once.
Legend:
[1] = tested on: Calu-3 cells; test: Transcriptome analysis (RNA-Seq, differential expression and differential alternative splicing) of compound 1-treated Calu-3 cells; assay type: cell-based, human; conditions: 18 h; for delta PSI: 10 μM
Method: Transcriptome analysis for compound 1-treated Calu-3 cells RNAs were extracted using RNeasy Mini kit (QIAGEN, Hilden, Germany) from Calu-3 cells, treated with 10 μM compound 1 or 0.1% DMSO for 18 h, and applied for RNA-Seq analysis. Three technical replicates for RNA-Seq, where each experiment was independently conducted three times from a stocked total RNA. RNA-seq reads were mapped to the human genome sequences (GRCh38) using STAR (ver. 2.7.1a, https://github.com/alexdobin/STAR) with ENCODE options, using the Ensembl genome annotation (ver. 102). Raw reads were counted with bam files, and TPM values were calculated using RSEM v1.2.31 (https://github.com/deweylab/RSEM). Differentially expressed genes were identified using the method described above. Differential alternative splicing (DAS) events were analyzed with the method previously described (Sakuma et al., 2015) using the rMATS program (http://rnaseq-mats.sourceforge.net/rmats4.1.1/). DAS was defined by the following criteria: FDR<0.01, read counts≥15, and delta Percent Spliced-In (PSI)≥0.05. The DAS events were compared with the gene annotation information, the event types were then classified into events on the exons constituting the productive mRNAs, events on additional exons/regions of the productive mRNAs, and others. For characterizing gene set and transcriptome profiles, the Metascape website (https://imetascape.org/) and Gene Set Enrichment Analysis (GSEA, https://ww.gsea-maigdb.org/gsea/) were used. The same samples were also used for RT-PCR.

[2] = molecular target: T1, CLK1 (Homo sapiens, UniProt P49759); test: Inhibition confirmation test for CLK (off-chip mobility shift assay); assay type: biochemical; conditions: ATP 10 μM; read-out: CLK1 inhibitory activity (IC50 value)
T1 construct: Enzyme activity was measured with off-chip mobility shift assay using purified CLK protein
T1 sequence (P49759 whole entry): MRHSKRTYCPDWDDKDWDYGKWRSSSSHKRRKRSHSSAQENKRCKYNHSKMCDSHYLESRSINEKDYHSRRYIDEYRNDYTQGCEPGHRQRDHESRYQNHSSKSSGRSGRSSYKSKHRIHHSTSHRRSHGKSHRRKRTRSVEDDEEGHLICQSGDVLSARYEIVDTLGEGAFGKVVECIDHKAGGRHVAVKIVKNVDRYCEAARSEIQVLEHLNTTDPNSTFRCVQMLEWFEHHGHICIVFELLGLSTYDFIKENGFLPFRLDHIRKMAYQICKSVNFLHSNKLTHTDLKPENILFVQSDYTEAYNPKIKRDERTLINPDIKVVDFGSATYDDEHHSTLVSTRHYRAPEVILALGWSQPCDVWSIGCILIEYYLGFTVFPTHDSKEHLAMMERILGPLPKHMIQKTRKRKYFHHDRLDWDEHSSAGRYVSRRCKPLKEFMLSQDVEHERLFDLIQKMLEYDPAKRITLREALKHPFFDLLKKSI
Method: Enzyme activity was measured with off-chip mobility shift assay using purified CLK protein. […] The enzyme reaction was performed at room temperature for 1 hour, and the reaction was terminated by adding QuickScout Screening Assist MSA (Carna Biosciences, Inc.). A substrate peptide and a phosphorylated peptide in the enzyme reaction solution were separated and quantified using the LabChip system (Perkin-Elmer, Waltham, MA, USA), and inhibition of CLK was evaluated by calculating a product ratio using the following formula, the substrate peptide peak height (S), and the phosphorylated peptide peak height (P).
(P/(P+S)) • P: product-derived peak • S: substrate-derived peak

[3] = tested on: SARS-CoV-2; assay type: cell-based

N=C1NC(=O)/C(=C/c2ccc3c(c2)CCO3)S1 [compound 1]
delta PSI ([1]; AAMP Intron between E5-E7 RI): −0.307
delta PSI ([1]; AC107871.1 E2-E3 SE additional exon): −0.333
delta PSI ([1]; AL117339.4 E2 SE): 0.318
delta PSI ([1]; AL136531.2 E2-E3 SE additional exon): −0.418
delta PSI ([1]; AL163636.1 E2 SE): 0.331
delta PSI ([1]; APOL1 E3 A3SS): −0.448
delta PSI ([1]; CABYR E4 A5SS): 0.309
delta PSI ([1]; CDK5RAP2 E32 SE): 0.313
delta PSI ([1]; CENPE E17 SE): 0.422
delta PSI ([1]; CFAP298 Intron between E5-E7 RI): −0.451
delta PSI ([1]; CLK1 E4 SE): 0.331
delta PSI ([1]; CLK4 E4 SE): 0.37
delta PSI ([1]; CLK4 Intron between E3-E4 RI): −0.346
delta PSI ([1]; CLK4 Intron between E4-E5 RI): −0.401
delta PSI ([1]; CYLD E2-E3 SE additional exon): −0.307
differential expression, number of genes ([1]; Calu-3, 10 μM): 98 genes
splice alterations yielding protein-coding variants, number of genes ([1]; Calu-3, 10 μM): 63 genes
delta PSI ([1]; DCUN1D2 E4-E5 SE additional exon): −0.438
delta PSI ([1]; DMD E71 SE): 0.365
delta PSI ([1]; DNHD1 Intron between E42-E43 RI): −0.31
delta PSI ([1]; DNM1 E14 SE): 0.342
delta PSI ([1]; DYNC1LI1 Intron between E8-E10 RI): −0.778
delta PSI ([1]; EPB41 E16-E17 SE additional exon): −0.301
delta PSI ([1]; FAAP100 E2 A5SS): −0.318
delta PSI ([1]; GALT Intron between E2-E6 RI): −0.374
delta PSI ([1]; GK E9 SE): 0.322
delta PSI ([1]; HAT1 Intron between E6-E8 RI): −0.584
delta PSI ([1]; HERC3 E17 SE): 0.309
delta PSI ([1]; HERC4 E17 SE): 0.38
delta PSI ([1]; IMPDH2 Intron between E3-E5 RI): −0.376
delta PSI ([1]; KANSL3 E3 A3SS): −0.309
delta PSI ([1]; KTN1 E41 SE): 0.304
delta PSI ([1]; LIMCH1 E9 SE): 0.42
delta PSI ([1]; LRP8 E5 SE): 0.392
delta PSI ([1]; LRRC6 E5 SE): 0.391
delta PSI ([1]; LRRC75B E1-E2 SE additional exon): −0.338
delta PSI ([1]; MAP3K7 E12 SE): 0.404
delta PSI ([1]; MCTP1 E8 SE): 0.367
delta PSI ([1]; METTL26 E2 SE): 0.3
delta PSI ([1]; MON2 E28 SE): 0.345
delta PSI ([1]; MPP3 E11 SE): 0.32
delta PSI ([1]; MSL3 Intron between E4-E6 RI): −0.485
delta PSI ([1]; MYO6 E34 SE): 0.405
delta PSI ([1]; MYOM1 E18 SE): 0.344
delta PSI ([1]; NAV2 E28 SE): 0.437
delta PSI ([1]; NEK1 E17 SE): 0.367
delta PSI ([1]; NGDN Intron between E4-E7 RI): −0.302
delta PSI ([1]; OBSL1 E12 SE): 0.369
delta PSI ([1]; PCGF3 E3-E4 SE additional exon): −0.318
delta PSI ([1]; PDE9A E5 SE): 0.378
delta PSI ([1]; PI4KB E2 SE): 0.421
delta PSI ([1]; PNKP Intron between E14-E16 RI): −0.3
delta PSI ([1]; PPM1K E2 SE): 0.317
delta PSI ([1]; RBPMS E8 SE): 0.301
delta PSI ([1]; RPGR E14 SE): 0.448
delta PSI ([1]; RPL3 Intron between E7-E9 RI): −0.381
delta PSI ([1]; RPL13A Intron between E2-E4 RI): −0.654
delta PSI ([1]; RTN4 E3 SE): 0.361
delta PSI ([1]; SAMD9L Partial Intron on E3 RI): 0.364
delta PSI ([1]; SLC25A29 E2-E3 SE additional exon): −0.314
delta PSI ([1]; SMARCA1 E13 SE): 0.367
delta PSI ([1]; SNX14 E16 SE): 0.336
delta PSI ([1]; SPATA20 E1-E2 SE additional exon): −0.319
delta PSI ([1]; TRIM2 E2 SE): 0.372
delta PSI ([1]; TRMU Intron between E9-E11 RI): −0.333
delta PSI ([1]; WNK1 E11 SE): 0.517
delta PSI ([1]; ZNF519 E3 A3SS): 0.316
IC50 [2]: 21.6 nM
viral titer fold change [3]: 0.56
log10 (TCID50/ml) Batch-effect corrected ([3]; 10 μM, 2nd batch replicates, listed as Compund 1): 7.6 and 7.44 and 7.41
log10 (TCID50/ml) ([3]; 10 μM, raw, single replicates of 1st and 2nd batch, listed as Compund 1): 7.5 (2×) and 7.25 and 6.75 and 6.5 and 6.45
viral titer ([3]; Calu-3 pre-treated 24 h with 10 μM, MOI 0.01, 48 hours pi, DMSO control 5.18×10^7): 2.90×10^7
